Measured values from patent US7998952B2, “Thiolactams and uses thereof” (Millennium Pharmaceuticals, Inc., priority 2008, dated 2011).

Target: T1, recombinant human PLK1[2-369]T210D (Homo sapiens, UniProt P53350, T210D)
T1 construct: recombinant human PLK1[2-369]T210D; Smt (SUMO) fusion partner (N, cleaved yes); host or cells: E. coli
Assay: PLK1 DELFIA Kinase Assay
Format: biochemical
Conditions: 50 μM ATP, 2 μM peptide substrate, 0.3 nM enzyme, 90 minutes at room temperature
Description: Recombinant human PLK1 was expressed in E. coli as an N-terminal Smt fusion protein using a proprietary vector (pSGX4) by Structural Genomics (SGX). The fusion partner was removed through cleavage with Ulp1 after an initial purification using a Ni2+ affinity column.
PLK1 DELFIA® Kinase Assay
The enzymatic reaction mixture, with or without PLK inhibitors, was incubated 90 minutes at room temperature before termination with 50 μL of STOP buffer containing 1% BSA, 0.05% Tween20, 100 mM EDTA. 50 μL of the stopped enzyme reaction mixture was transferred to a Neutravidin-coated 384-well plate (Pierce) and incubated at room temperature for 60 minutes. […] The wells were washed and then the bound europium was liberated using 50 μL of Enhancement Solution (Perkin Elmer). Quantification of europium was done using a Pherastar (BMG Labtech)

T1 sequence (P53350 2-369 T210D): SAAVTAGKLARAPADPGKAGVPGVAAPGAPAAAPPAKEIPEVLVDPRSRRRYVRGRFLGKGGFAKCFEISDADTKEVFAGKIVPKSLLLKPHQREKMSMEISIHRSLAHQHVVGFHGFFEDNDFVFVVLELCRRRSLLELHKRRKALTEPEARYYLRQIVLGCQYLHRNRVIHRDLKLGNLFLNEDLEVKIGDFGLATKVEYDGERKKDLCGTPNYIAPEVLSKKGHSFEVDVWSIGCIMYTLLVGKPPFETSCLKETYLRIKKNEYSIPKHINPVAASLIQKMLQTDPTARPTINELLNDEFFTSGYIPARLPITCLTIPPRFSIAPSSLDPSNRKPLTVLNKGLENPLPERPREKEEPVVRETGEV

Compound | IC50 [nM]
Cc1ncccc1Nc1ncc2c(n1)-c1cc(CCCN(C)C)c(Cl)cc1NC(=S)C2 [Compound I-93, 9-chloro-10-[3-(dimethylamino)propyl]-2-[(2-methylpyridin-3-yl)amino]-5,7-dihydro-6H-pyrimido[5,4-d][1]benzazepine-6-thione] | 5 to 25
Cc1nc(C(=O)NCCN2CCOCC2)ccc1Nc1ncc2c(n1)-c1ccc(C(F)(F)F)cc1NC(=S)C2 [Compound I-21] | < 5
Cc1nc(N2CCC(N(C)C)CC2)ccc1Nc1ncc2c(n1)-c1ccc(C(F)(F)F)cc1NC(=S)C2 [Compound I-29, 2-({6-[4-(dimethylamino)piperidin-1-yl]-2-methylpyridin-3-yl}amino)-9-(trifluoromethyl)-5,7-dihydro-6H-pyrimido[5,4-d][1]benzazepine-6-thione] | < 5
Nc1ccc(Nc2ncc3c(n2)-c2ccc(Cl)cc2NC(=S)C3)cn1 [Compound I-68, 2-[(6-aminopyridin-3-yl)amino]-9-chloro-5,7-dihydro-6H-pyrimido[5,4-d][1]benzazepine-6-thione] | < 5
Cc1ncc(CCN2CCC(N(C)C)CC2)cc1Nc1ncc2c(n1)-c1ccc(C(F)(F)F)cc1NC(=S)C2 [Compound I-52, 2-[(5-{2-[4-(dimethylamino)piperidin-1-yl]ethyl}-2-methylpyridin-3-yl)amino]-9-(trifluoromethyl)-5,7-dihydro-6H-pyrimido[5,4-d][1]benzazepine-6-thione] | < 5
S=C1Cc2cnc(Nc3ccc(N4CCOCC4)nc3)nc2-c2ccc(Cl)cc2N1 [Compound I-13, 9-chloro-2-[(6-morpholin-4-ylpyridin-3-yl)amino]-5,7-dihydro-6H-pyrimido[5,4-d][1]benzazepine-6-thione] | < 5
Cc1nc(NCC2CCN(C)CC2)ccc1Nc1ncc2c(n1)-c1ccc(C(F)(F)F)cc1NC(=S)C2 [Compound I-65] | < 5
S=C1Cc2cnc(Nc3cncc(CCN4CCOCC4)c3)nc2-c2ccc(Cl)cc2N1 [Compound I-78, 9-chloro-2-{[5-(2-morpholin-4-ylethyl)pyridin-3-yl]amino}-5,7-dihydro-6H-pyrimido[5,4-d][1]benzazepine-6-thione] | < 5
CN(C)CCCc1cncc(Nc2ncc3c(n2)-c2ccc(C(F)(F)F)cc2NC(=S)C3)c1 [Compound I-32, 2-({5-[3-(dimethylamino)propyl]pyridin-3-yl}amino)-9-(trifluoromethyl)-5,7-dihydro-6H-pyrimido[5,4-d][1]benzazepine-6-thione] | < 5
Cc1nc2c(cc1Nc1ncc3c(n1)-c1ccc(Cl)cc1NC(=S)C3)CC(N(C)C)CC2 (stereo not drawn) [Compound I-96, 9-chloro-2-{[6-(dimethylamino)-2-methyl-5,6,7,8-tetrahydroquinolin-3-yl]amino}-5,7-dihydro-6H-pyrimido[5,4-d][1]benzazepine-6-thione] | < 5
Cc1nc(C)c(Nc2ncc3c(n2)-c2ccc(Cl)cc2NC(=S)C3)cc1CCCN(C)C [Compound I-42, 9-chloro-2-({5-[3-(dimethylamino)propyl]-2,6-dimethylpyridin-3-yl}amino)-5,7-dihydro-6H-pyrimido[5,4-d][1]benzazepine-6-thione] | < 5
Cc1nc(NCCN(C)C)ccc1Nc1ncc2c(n1)-c1ccc(Cl)cc1NC(=S)C2 [Compound I-97, 9-chloro-2-[(6-{[2-(dimethylamino)-ethyl]amino}2-methylpyridin-3-yl)amino]-5,7-dihydro-6H-pyrimido[5,4-d][1]benzazepine-6-thione] | 5 to 25
Cc1ncc(CCCCN(C)C)cc1Nc1ncc2c(n1)-c1ccc(Cl)cc1NC(=S)C2 [Compound I-89, 9-chloro-2-({5-[4-(dimethylamino)butyl]-2-methylpyridin-3-yl}amino)-5,7-dihydro-6H-pyrimido[5,4-d][1]benzazepine-6-thione] | < 5
Cc1ncc(CCCN(C)C)cc1Nc1ncc2c(n1)-c1ccc(C3CC3)cc1NC(=S)C2 [Compound I-39, 9-cyclopropyl-2-({5-[3-(dimethylamino)propyl]-2-methylpyridin-3-yl}amino)-5,7-dihydro-6H-pyrimido[5,4-d][1]benzazepine-6-thione] | < 5
Cc1nc(N2CCOCC2)ccc1Nc1ncc2c(n1)-c1ccc(C(F)(F)F)cc1NC(=S)C2 [Compound I-100, 2-[(2-methyl-6-morpholin-4-ylpyridin-3-yl)amino]-9-(trifluoromethyl)-5,7-dihydro-6H-pyrimido[5,4-d][1]benzazepine-6-thione] | < 5
Cc1ncc(Nc2ncc3c(n2)-c2ccc(Cl)cc2NC(=S)C3)cc1CCCN(C)C [Compound I-94, 9-chloro-2-({5-[3-(dimethylamino)propyl]-6-methylpyridin-3-yl}amino)-5,7-dihydro-6H-pyrimido[5,4-d][1]benzazepine-6-thione] | < 5
Cc1cc(NC2CCN(C)CC2)ncc1Nc1ncc2c(n1)-c1ccc(C(F)(F)F)cc1NC(=S)C2 [Compound I-74, 2-({4-methyl-6-[(1-methylpiperidin-4-yl)amino]pyridin-3-yl}amino)-9-(trifluoromethyl)-5,7-dihydro-6H-pyrimido[5,4-d][1]benzazepine-6-thione] | < 5
Cc1nc(N(C)CCN(C)C)ccc1Nc1ncc2c(n1)-c1ccc(C(F)(F)F)cc1NC(=S)C2 [Compound I-35, 2-({6-[[2-(dimethylamino)ethyl](methyl)amino]-2-methylpyridin-3-yl}amino)-9-(trifluoromethyl)-5,7-dihydro-6H-pyrimido[5,4-d][1]benzazepine-6-thione] | 5 to 25
Cc1ncc(CCCN(C)C)cc1Nc1ncc2c(n1)-c1cc(CCCN(C)C)c(Cl)cc1NC(=S)C2 [Compound I-120, 9-chloro-10-[3-(dimethylamino)propyl]-2-({5-[3-(dimethylamino)propyl]-2-methylpyridin-3-yl}amino)-5,7-dihydro-6H-pyrimido[5,4-d][1]benzazepine-6-thione] | > 25
Cc1nc(NC(=O)CN(C)C)ccc1Nc1ncc2c(n1)-c1ccc(C(F)(F)F)cc1NC(=S)C2 [Compound I-121, 2-(dimethylamino)-N-(6-methyl-5-{[6-thioxo-9-(trifluoromethyl)-6,7-dihydro-5H-pyrimido[5,4-d][1]benzazepin-2-yl]amino}pyridin-2-yl)acetamide] | 5 to 25

The next lines start with the values.

IC50 [nM] | Compound
< 5 | Cc1ncc(CCN(C)C)cc1Nc1ncc2c(n1)-c1ccc(Cl)cc1NC(=S)C2 [Compound I-99, 9-chloro-2-({5-[2-(dimethylamino)-ethyl]-2-methylpyridin-3-yl}amino)-5,7-dihydro-6H-pyrimido[5,4-d][1]benzazepine-6-thione]
< 5 | CCN1CCN(c2cnc(C)c(Nc3ncc4c(n3)-c3ccc(Cl)cc3NC(=S)C4)c2)C[C@@H]1C [Compound I-66, 9-chloro-2-({5-[(3S)-4-ethyl-3-methylpiperazin-1-yl]-2-methylpyridin-3-yl}amino)-5,7-dihydro-6H-pyrimido[5,4-d][1]benzazepine-6-thione]
< 5 | Cc1ncc(N2CCN(C)CC2)cc1Nc1ncc2c(n1)-c1ccc(Cl)cc1NC(=S)C2 [Compound I-103, 9-chloro-2-{[2-methyl-5-(4-methylpiperazin-1-yl)pyridin-3-yl]amino}-5,7-dihydro-6H-pyrimido[5,4-d][1]benzazepine-6-thione]
< 5 | CCN1CCC(c2cnc(C)c(Nc3ncc4c(n3)-c3ccc(Cl)cc3NC(=S)C4)c2)CC1 [Compound I-17, 9-chloro-2-{[5-(1-ethylpiperidin-4-yl)-2-methylpyridin-3-yl]amino}-5,7-dihydro-6H-pyrimido[5,4-d][1]benzazepine-6-thione]
< 5 | CCN1CCN(c2cnc(C)c(Nc3ncc4c(n3)-c3ccc(C(F)(F)F)cc3NC(=S)C4)c2)C[C@@H]1C [Compound I-2, 2-({5-[(3S)-4-ethyl-3-methylpiperazin-1-yl]-2-methylpyridin-3-yl}amino)-9-(trifluoromethyl)-5,7-dihydro-6H-pyrimido[5,4-d][1]benzazepine-6-thione]
< 5 | Cc1ncc(CCN2CCCC(N(C)C)C2)cc1Nc1ncc2c(n1)-c1ccc(Cl)cc1NC(=S)C2 (stereo not drawn) [Compound I-34, 9-chloro-2-[(5-{2-[3-(dimethylamino)piperidin-1-yl]ethyl}-2-methylpyridin-3-yl)amino]-5,7-dihydro-6H-pyrimido[5,4-d][1]benzazepine-6-thione]
< 5 | Cc1ncc(CCN2CCCCC2)cc1Nc1ncc2c(n1)-c1ccc(Cl)cc1NC(=S)C2 [Compound I-54, 9-chloro-2-{[2-methyl-5-(2-piperidin-1-ylethyl)pyridin-3-yl]amino}-5,7-dihydro-6H-pyrimido[5,4-d][1]benzazepine-6-thione]
< 5 | Cc1ncc(CCN2CCN(C)CC2)cc1Nc1ncc2c(n1)-c1ccc(C(F)(F)F)cc1NC(=S)C2 [Compound I-26, 2-({2-methyl-5-[2-(4-methylpiperazin-1-yl)ethyl]pyridin-3-yl}amino)-9-(trifluoromethyl)-5,7-dihydro-6H-pyrimido[5,4-d][1]benzazepine-6-thione]
< 5 | CN1CCN(CCc2cncc(Nc3ncc4c(n3)-c3ccc(Cl)cc3NC(=S)C4)c2)CC1 [Compound I-51, 9-chloro-2-({5-[2-(4-methylpiperazin-1-yl)ethyl]pyridin-3-yl}amino)-5,7-dihydro-6H-pyrimido[5,4-d][1]benzazepine-6-thione]
< 5 | CCN1CCN(c2cncc(Nc3ncc4c(n3)-c3ccc(Cl)cc3NC(=S)C4)c2)C[C@@H]1C [Compound I-11, 9-chloro-2-({5-[(3S)-4-ethyl-3-methylpiperazin-1-yl]pyridin-3-yl}amino)-5,7-dihydro-6H-pyrimido[5,4-d][1]benzazepine-6-thione]
